# Assays:
# Format in all cases: cell-based, human
# LN229 and GBM39 cells = assay: Annexin V-FITC/PI apoptosis by flow cytometry; settings: LN229 and GBM39, 48 h
# From the text: Cells were layered in soft agar to evaluate anchorage-independent growth in the presence of the indicated concentrations of inhibitor and colonies counted following 14 days of growth. Representative crystal violet stained images are shown below. Data represent mean+S.D. of three independent experiments. […] Cells were placed in Boyden chambers and allowed to migrate towards BSA (white bars), vitronectin (light yellow bars), or fibronectin (dark yellow bars) (*, P<0.05; n=3). […] Representative crystal violet stained images are shown (200×). Data represent mean+S.D. of three independent experiments. […] Graphical data shown below represent mean+S.D. (late apoptosis; annexin V-positive, PI-positive) of three independent experiments.
# Cell proliferation, clonogenic, migration, invasion and apoptosis assays. Cell proliferation was determined via Cell Titer-Glo® luminescent cell assays (Promega). Clonogenic assays were done by plating a total of 1,000 cells per well in 24-well plates in a total volume of 400 μL using a two-layered soft agar system as previously described (Masri J, et al. (2007) Cancer Res 67: 11712-11720). Cell migration assays were conducted using precoated modified Boyden chambers as previously described (Benavides-Serrato A, et al. (2017) PLoS One 12: e0176599). […]
# YAP localization = assay: YAP cytoplasmic/nuclear localization (cell fractionation and immunofluorescence); settings: 50 nM, 6 h
# Procedure: Levels of total YAP were determined via ELISA. […] Immunoprecipitates were immunoblotted for the indicated proteins. […] Cells were treated with the indicated concentrations of inhibitor for 18 h and mRNA extracted for real time RT-PCR analyses. Measurements were performed in quadruplicate and means and+S.D. are shown. […] […] Cytoplasmic versus nuclear material was subsequently immunoblotted for the indicated proteins. […] Values in top right corner of panels correspond to the percentage of nuclear localized YAP. Cells were grown on coverslips and treated with NSC682769. Cells were permeabilized and stained using primary antibody to YAP1 and FITC-conjugated secondary. Nuclei were stained with DAPI. Scale bar, 20 μm.
# Surface plasmon resonance (SPR), ELISA, YAP-TEAD reporter activity, cellular fractionation, and immunofluorescence analyses. SPR experiments were carried out on a Nicoya OpenSPR™ instrument using immobilized YAP on a carboxyl-coated sensor. Binding was observed as the change in response units (RU) as analyte was injected at a flow rate of 10 μl/min at 25° C. TraceDrawer™ was used for kinetic analyses. The PathScan® total-YAP ELISA kit was obtained from Cell Signaling and used according to the manufacturer's instructions. YAP-TEAD reporter activity was determined as previously described (Kim N G, Gumbiner B M (2015) J Cell Biol 210: 503-515). HOP-flash contains multiple copies of wild-type TEAD-binding sites with a minimal promoter upstream of a luciferase reporter gene. Luciferase activity was measured via a luciferase assay system (Promega). Nuclear-cytoplasmic fractionation was performed according to Dignam et al. (Dignam J D, et al. (1983) Nucleic Acids Res 11: 1475-1489). Briefly, the buffers used were kept on ice and centrifugations were done at 4° C. with soft braking. After a single wash with PBS, cells were scraped with PBS (containing 1 mM DTT and 1× protease inhibitor) and harvested by centrifugation at 1000×g for 15 min. […] Cell lysis was monitored by trypan blue staining. […]
# [1] = tested on: YAP-TEAD transcriptional activity; assay: HOP-flash TEAD binding site luciferase reporter; settings: LN229 or GBM39 cells, 18 h
# Procedure: Levels of total YAP were determined via ELISA. […] Immunoprecipitates were immunoblotted for the indicated proteins. […] Cells were treated with the indicated concentrations of inhibitor for 18 h and mRNA extracted for real time RT-PCR analyses. Measurements were performed in quadruplicate and means and+S.D. are shown. […] Cells were treated with (+) or without (−) NSC682769 (100 nM, 18 h) and harvested and separated into cytoplasmic and nuclear cellular fractions. Cytoplasmic versus nuclear material was subsequently immunoblotted for the indicated proteins. […] Values in top right corner of panels correspond to the percentage of nuclear localized YAP. Cells were grown on coverslips and treated with NSC682769. Cells were permeabilized and stained using primary antibody to YAP1 and FITC-conjugated secondary. Nuclei were stained with DAPI. Scale bar, 20 μm.
# Surface plasmon resonance (SPR), ELISA, YAP-TEAD reporter activity, cellular fractionation, and immunofluorescence analyses. SPR experiments were carried out on a Nicoya OpenSPR™ instrument using immobilized YAP on a carboxyl-coated sensor. […] YAP-TEAD reporter activity was determined as previously described (Kim N G, Gumbiner B M (2015) J Cell Biol 210: 503-515). […] Luciferase activity was measured via a luciferase assay system (Promega). […] Cell lysis was monitored by trypan blue staining. […]
smiles,measurement,setting,value
COc1ccc(-c2cc(-c3ccccc3)nc3c2CC(=O)Nc2ccccc2-3)cc1OC [NSC682769],Apoptosis,LN229 and GBM39 cells,enhanced
same,Relative amount of nuclear YAP (immunofluorescence),"YAP localization; GBM39 cells, untreated 53%",19%
same,Relative amount of nuclear YAP (immunofluorescence),"YAP localization; LN229 cells, untreated 67%",26%
same,Nuclear versus cytoplasmic YAP by cell fractionation,YAP localization; LN229 or GBM39 cells,reduction of nuclear YAP and a concomitant accumulation of cytoplasmic YAP
same,YAP-TEAD transcriptional activity (luciferase),[1],markedly reduced
